# In patent US20230035479A1, “METHODS AND COMPOSITIONS FOR REDUCING HAIR GREYING” (President and Fellows of Harvard College, priority 2019, published 2023):
# Read-outs that look alike come from different tables or passages of the source.
# Columns and labels:
# [1] = tested on: melanocyte stem cells (MeSCs); assay: MeSC numbers in hair follicles, TRP2 immunofluorescence or membrane GFP tracing; details: for MeSC preservation in RTX-injected animals: topical 5 mg/kg, until 48 hours post RTX injection, full anagen
# Protocol: For RTX injection, mice received injections of RTX (30-100 μg/kg) in the flank for 1-3 days as described previously [15, 16, 51-56]. […] Control mice were treated with the vehicle only. RTX injection was done either in full anagen (P31-P36) or in 1st telogen (P21). […] Mice were treated for three days (P28-P30). […] RTX was given at Anagen VI (P31˜P36).
# C57BL/6J mice = format: in vivo, mouse
# mature melanocytes = assay: Differentiated/mature melanocytes and hair bulb cells, immunofluorescence; format: in vivo, mouse; details: full anagen; for proliferation of cells in the hair bulb: RTX-injected animals, topical CDK inhibitors
# Protocol: Loss of hair pigmentation can be due to defects in melanin synthesis, loss of differentiated melanocytes, or problems in MeSC maintenance. To understand how stress impacts the melanocyte lineage, RTX was injected into mice in anagen, when both MeSCs and differentiated melanocytes were present but located within distinct compartments—MeSCs were near to the bulge while differentiated melanocytes were at the hair bulb (FIG. 1E). […] These differentiated melanocytes continued to generate pigments, and the hair coat remained black (FIGS. 6F-6G). When hair follicles in the RTX-injected animals entered catagen and telogen, many have lost all MeSCs (FIG. 1E, Telo). Subsequently, when the next round of anagen initiated, differentiated melanocytes were not produced to color new hair shafts, and unpigmented hairs emerged (FIG. 1E, 2nd Ana, FIG. 6H). […] In this case, unpigmented hairs appeared as soon as new hairs emerged in the following anagen (FIGS. 7A-7B). […] MeSCs were also lost or reduced in mice subjected to restraint stress or chronic unpredictable stress (FIG. 7C). Since stress depleted MeSCs, the loss of hair pigmentation in all three conditions was permanent (FIG. 7D).
# Quiescence is a key feature of many somatic stem cells. Loss of quiescence has been postulated to cause MeSC loss in Bcl2 mutants. To examine if stress alters MeSCs quiescence, RTX or norepinephrine was injected into mice that had entered full anagen, when MeSCs are normally quiescent. A dramatic increase in the number of proliferating MeSCs was seen within 24 hours after RTX or norepinephrine injection—about 50% of MeSCs became positive for Phospho-Histone H3, an M phase marker (FIG. 4B). This number is in sharp contrast to the MeSC proliferation seen in early anagen (˜6%), the only stage when MeSCs proliferate to self-renew (FIG. 11E).
# (§1) Mouse skin samples were fixed using 4% paraformaldehyde (PFA) for 15 minutes at room temperature, washed 6 times with PBS, and immersed in 30% sucrose overnight at 4° C. Samples were then embedded in OCT (Sakura Finetek). 35˜50 μm sections were fixed in 4% paraformaldehyde (PFA) for 2 minutes and washed with PBS and PBST. Slides were then blocked using blocking buffer (5% donkey serum; 1% BSA, 2% cold water fish gelatin in 0.3% Triton in PBS) for 1 hour at room temperature, followed by staining with primary antibodies overnight at 4° C. and secondary antibody for 4 hours at room temperature. For sympathetic nerve density quantification, 90 μm sections were used. EdU was developed for 1 hour using the Click-It reaction according to manufacturer instructions (Thermo Fisher Scientific). TUNEL assay was performed according to manufacturer instructions (Roche). Fontana—Masson staining was performed according to manufacturer instructions (Market Lab ML7255). Antibodies used: TRP2 (Santa Cruz 10451, 1:800), tyrosine hydroxylase (rabbit, Millipore AB152, 1:1000 or sheep, Millipore AB1542, 1:150-1:300), c-Fos (Abcam, 190289, 1:1000), γ-H2AX (Cell Signaling, 9718, 1:400), phospho-histone H3 (rabbit, Cell Signaling Technology 3377S, 1:500), cleaved caspase 3 (rabbit, Cell Signaling Technology 9664S, 1:400), GFP (rabbit, Abcam ab290, 1:1000 or chicken, Ayes labs GFP-1010, 1:200), CD3 (eBioscience 14-0032-81, 1:800), CD11b (eBioscience 14-0112-81, 1:800), Phospho-CREB (Cell Signaling 9198, 1:800), MITF (Abcam ab12039, 1:400).
# [2] = tested on: melanocyte stem cells (MeSCs); assay: MeSC proliferation, Phospho-Histone H3 immunofluorescence; details: for MeSC quiescence in RTX-injected animals: topical 5 mg/kg, until 48 hours post RTX injection
# Protocol: For RTX injection, mice received injections of RTX (30-100 μg/kg) in the flank for 1-3 days as described previously [15, 16, 51-56]. […] Control mice were treated with the vehicle only. RTX injection was done either in full anagen (P31-P36) or in 1st telogen (P21). […] RTX was given at Anagen VI (P31˜P36).
# All images were acquired using a Zeiss LSM 880 confocal microscope or Keyence microscope using ×20 or ×40 magnification lenses. Images are presented as Maximum Intensity Projection images. For colocalization analysis, images are presented as a single Z stack.
# [3] = tested on: melanocyte stem cells (MeSCs); assay: Corticosterone feeding in drinking water; details: corticosterone elevated via feeding, 35 μg/ml in drinking water, three days
# Protocol: Since all stressors led to elevated corticosterone and norepinephrine in the blood, it was considered if these stress-induced circulating factors played a role in stress-induced MeSC loss.
# Control mice were treated with the vehicle only. […] Mice were treated for three days (P28-P30).
# human hair follicles = assay: Cultured human hair follicles, pigmented bulge or outer root sheath cells; format: cell-based; details: 24 hours
# Protocol: (§2) FIG. 14C provides quantification of the proportion of follicles that contain pigmented bulge or outer root sheath cells vs those lacking such pigmented cells outside of the bulb region. Human discarded hair bearing skin was cultured for 3 days with single hairs being isolated and grown in semi solid agarose William E medium with vehicle or norepinephrine (0.1 mM) for 24 hours. The cells were assessed after culture to identify those that were pigmented from those that were not. The presence of pigmented cells indicates senescence of melanocyte stem cells. Signal in vehicle control likely reflects the middle-age of the donor follicles.
# Hair follicles from discarded scalp skin of […] was cultured for 3 days. Single hairs were isolated and grown in a semi agarose William E medium with vehicle, norepinephrine (NE) (0.1 mM), or NE (0.1 mM) +butoxamine (0.1 mM) (β2 blocker) for 24 hours. The graph indicates the proportion of follicles containing (or lacking) pigmented melanocytes (see arrows) in the bulge or outer root sheath locations, indicating melanocyte stem cell differentiation/senescence.
# [4] = tested on: melanocyte stem cells (MeSCs); assay: Apoptosis (active caspase-3, TUNEL) and DNA damage (gamma-H2AX) in MeSCs; format: in vivo, mouse
# Protocol: Radiation causes DNA damage in MeSCs, leading to their differentiation within the niche.
# as §1
# [5] = tested on: primary human melanocytes; assay: qRT-PCR in cultured primary human melanocytes treated with norepinephrine; format: cell-based
# Protocol: (§3) Primary human melanocytes were derived from neonatal foreskin as previously described and cultured in Medium 254 (Invitrogen, Thermo Fisher Scientific). Melanocytes (passages 2 and 4) were starved for 24 hours in HAM's F-10 +1% penicillin/streptomycin/glutamine before adding NE (10 uM).
# The cDNA libraries were synthesized using Superscript IV VILO master mix with ezDNase (Thermo Fisher). Quantitative real time PCR was performed using power SYBR green (Thermo Fisher) in an ABI QuantStudio6 Flex qPCR instrument. Ct values were normalized to an internal control of beta-actin.
# CREB/ATF1 = CREB/ATF1 phosphorylation in human primary melanocytes; format: cell-based; details: 10 uM, after 15 minutes
# Protocol: as §2, §3
# ADRB2 on MeSCs = ADRB2 on MeSCs (Mus musculus, UniProt P18762); assay: Hair greying after intradermal norepinephrine injection
# Protocol: To test if elevated norepinephrine was sufficient to cause hair greying in the absence of stress, norepinephrine was introduced locally to the skin via intradermal injections.
# For tamoxifen treatment, tamoxifen was diluted in corn oil to a final concentration of 20 mg/ml. To induce recombination, 20 mg/kg was injected intraperitoneally once per day for 4-7 days. […] 50 μm was injected intradermally into experimental animals together with fluorescent beads at full anagen (P31˜P36). Control animals were injected with equivalent volume of vehicle (0.1% ascorbic acid in 0.9% sterile NaCl) with fluorescent beads. The injection sites were marked using water resistant ink.
# (§4) For intradermal injection experiments (NE or CNO), unpigmented hairs were quantified by plucking ˜100 hairs from each injection site (marked by water resistant ink at the time of injection), and the percentage of white hairs were calculated by dividing the number of white hairs by the total number of hairs plucked.
# sympathetic neurons = assay: c-FOS immunofluorescence in sympathetic ganglia; format: in vivo, mouse; details: TH-CreER; Gq-DREADD mice injected with CNO
# Gq-DREADD = Gq-DREADD (Homo sapiens, UniProt P20309, A239G/Y149C); assay: Sympathetic nerve activation with Gq-DREADD by intradermal CNO
# Description: To determine if sympathetic nerve activation in the absence of stress is sufficient to drive MeSC loss, a chemogenetic approach was taken using the Designer Receptor Exclusively Activated by Designer Drugs (DREADDs) system [3, 4]. Gq-DREADD is an artificial Gq-protein coupled receptor activated by the inert molecule Clozapine N-Oxide (CNO) but not by endogenous ligands. Activation of Gq-DREADD leads to intracellular calcium release and neuronal firing. TH-CreER; CAG-lsl-Gq-DREADD; Rosa-mT/mG mice were generated, which allowed for artificial activation of sympathetic nerves with CNO (FIG. 3D).
# Control mice were treated with the vehicle only. […] For tamoxifen treatment, tamoxifen was diluted in corn oil to a final concentration of 20 mg/ml. To induce recombination, 20 mg/kg was injected intraperitoneally once per day for 4-7 days. For mosaic induction of Tyr-CreER and TH-CreER, 20 mg/kg tamoxifen was injected intraperitoneally once per day for 3 days. […] Control animals were injected with equivalent volume of vehicle (0.1% ascorbic acid in 0.9% sterile NaCl) with fluorescent beads. The injection sites were marked using water resistant ink. […] For Induction of Gq-DREADD, 50 μl CNO (1 mg/ml in 0.9% sterile saline) was injected intradermally into experimental animals together with fluorescent beads at full anagen (P31˜P36). Control animals were injected with equivalent volume of vehicle (0.9% sterile saline) together with fluorescent beads.
# as §4
# [6] = sympathetic nerve ablation, 100 mg/kg intraperitoneally daily P18 to P22
# [7] = topical 5 mg/kg in ethanol, 48 h before to 48 h after RTX
# Sequence of ADRB2 on MeSCs (P18762 whole entry): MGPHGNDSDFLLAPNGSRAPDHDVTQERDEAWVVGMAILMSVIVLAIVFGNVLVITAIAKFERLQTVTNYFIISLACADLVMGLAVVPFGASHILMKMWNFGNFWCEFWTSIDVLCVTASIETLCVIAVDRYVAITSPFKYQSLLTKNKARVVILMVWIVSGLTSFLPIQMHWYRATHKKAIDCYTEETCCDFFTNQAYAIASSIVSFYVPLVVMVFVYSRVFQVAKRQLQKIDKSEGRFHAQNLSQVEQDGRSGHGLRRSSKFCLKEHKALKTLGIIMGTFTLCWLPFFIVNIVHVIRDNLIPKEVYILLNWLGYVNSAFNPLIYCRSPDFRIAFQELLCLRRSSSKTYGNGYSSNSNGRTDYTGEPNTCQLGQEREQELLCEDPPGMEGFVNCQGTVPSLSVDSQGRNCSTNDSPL
# Sequence of Gq-DREADD (P20309 whole entry Y149C/A239G): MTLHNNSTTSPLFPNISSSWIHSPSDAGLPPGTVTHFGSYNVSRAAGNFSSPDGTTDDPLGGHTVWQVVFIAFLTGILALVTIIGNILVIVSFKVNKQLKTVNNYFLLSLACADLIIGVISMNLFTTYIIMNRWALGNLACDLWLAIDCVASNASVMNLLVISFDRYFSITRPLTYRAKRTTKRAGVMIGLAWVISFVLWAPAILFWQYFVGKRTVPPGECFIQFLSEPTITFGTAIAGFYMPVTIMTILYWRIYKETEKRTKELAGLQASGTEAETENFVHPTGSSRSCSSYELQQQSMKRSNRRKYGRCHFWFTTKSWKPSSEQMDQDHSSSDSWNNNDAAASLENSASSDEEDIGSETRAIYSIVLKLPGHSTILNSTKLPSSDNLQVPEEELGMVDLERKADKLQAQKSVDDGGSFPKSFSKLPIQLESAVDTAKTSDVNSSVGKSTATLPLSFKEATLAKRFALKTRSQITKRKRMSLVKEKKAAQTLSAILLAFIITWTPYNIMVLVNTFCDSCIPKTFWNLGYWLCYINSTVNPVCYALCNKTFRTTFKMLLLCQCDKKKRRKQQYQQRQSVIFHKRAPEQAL
compound,measurement,setting,value
N=C(N)NCCN1CCCCCCC1 [guanethidine],effect on MeSC loss upon RTX injection,"[1]; mouse, in vivo",suppressed hair greying and MeSC loss
"NCCc1cc(O)c(O)cc1O [6-OHDA, 6-hydroxy dopamine]",effect on RTX-induced hair greying,C57BL/6J mice; [6],blocked RTX-induced hair greying
same,effect on RTX-induced MeSC loss,[1]; [6],blocked RTX-induced hair greying and MeSC loss
"O=C(NC1CCNCC1)c1n[nH]cc1NC(=O)c1c(Cl)cccc1Cl [AT7519, N-(4-Piperidinyl)-4-(2,6-dichlorobenzoylamino)-1H-pyrazole-3-carboxamide]",effect on RTX-induced hair greying,C57BL/6J mice; [7],inhibits RTX-induced hair greying
same,proliferation of cells in the hair bulb,mature melanocytes,remained largely normal
same,MeSC quiescence in RTX-injected animals,[2],remained quiescent
same,MeSC preservation in RTX-injected animals,[1],preserved in the niche
CN1CC[C@H](c2c(O)cc(O)c3c(=O)cc(-c4ccccc4Cl)oc23)[C@H](O)C1 [Flavopiridol],effect on RTX-induced hair greying,C57BL/6J mice; [7],inhibits RTX-induced hair greying
same,proliferation of cells in the hair bulb,mature melanocytes,remained largely normal
same,MeSC quiescence in RTX-injected animals,[2],remained quiescent
same,MeSC preservation in RTX-injected animals,[1],preserved in the niche
C[C@]12C[C@H](O)[C@H]3[C@@H](CCC4=CC(=O)CC[C@@]43C)[C@@H]1CC[C@@H]2C(=O)CO [corticosterone],changes in MeSCs,[3],no changes in MeSCs or hair pigmentation
same,changes in hair pigmentation,[3],no changes in MeSCs or hair pigmentation
COc1ccc(OC)c(C(O)C(C)NC(C)(C)C)c1 (centres unmarked) [butoxamine],effect on norepinephrine-induced melanocyte pigmentation/senescence,"human hair follicles; NE 0.1 mM + butoxamine 0.1 mM, follicles of person",prevents norepinephrine-induced melanocyte pigmentation/senescence
NC[C@H](O)c1ccc(O)c(O)c1 [norepinephrine],active caspase-3 or TUNEL signals in MeSCs,"[4]; before MeSC depletion from the niche, 1 day after injection",failed to detect active caspase-3 or TUNEL signals
same,gamma-H2AX foci (DNA damage) in MeSCs,[4]; following injection,failure to detect gamma-H2AX foci
same,proliferation or apoptosis in mature melanocytes,mature melanocytes; after injection,no changes in proliferation or apoptosis
same,expression of proliferation and differentiation genes,"[5]; cultured human melanocyte cells, NE 10 uM","rapid induction of proliferation genes like Cdk2, and differentiation genes like Mitf and Tyr"
same,expression of MITF and MITF target genes,[5]; cultured primary human melanocytes,induces MITF and multiple MITF target genes
same,phosphorylation/activation of CREB/ATF1,CREB/ATF1,induces transient phosphorylation/activation of CREB/ATF1
same,melanocyte stem cell pigmentation in human hair follicles,human hair follicles; norepinephrine 0.1 mM,heavy norepinephrine-induced melanocyte stem cell pigmentation
same,hair greying at injection sites,ADRB2 on MeSCs; HFSC-specific adrb2 knockout mice,promoted hair greying at the injection sites
same,hair greying at injection sites,ADRB2 on MeSCs; MeSC-specific adrb2 knockout mice,failed to cause hair greying
same,hair greying at injection sites,"ADRB2 on MeSCs; wild type mice, absence of stress",promoted hair greying at the injection sites
same,MeSCs positive for Phospho-Histone H3,"[2]; within 24 hours after injection, full anagen",about 50%
"C[N+]1([O-])CCN(C2=Nc3cc(Cl)ccc3Nc3ccccc32)CC1 [CNO, Clozapine N-Oxide]",c-FOS activation in sympathetic ganglia,sympathetic neurons,induced c-FOS activation in sympathetic ganglia
same,hair greying at CNO injection sites,"Gq-DREADD; TH-CreER, Gq-DREADD mice",led to loss of MeSCs and hair greying at the sites where CNO was injected
same,loss of MeSCs at CNO injection sites,"Gq-DREADD; TH-CreER, Gq-DREADD mice",led to loss of MeSCs
same,MeSC loss with mosaic TH-CreER activation,Gq-DREADD; low dose of tamoxifen,resulted in MeSC loss only in hair follicles innervated by DREADD-positive nerve fibres
